Holding throughout (assay): DTP human tumour cell line panel, 48 h
For test [1], the system named is A498 renal.
In test [2] the test system is EKVX NSCLC.
For test [3], the system named is NCI-H23 lung.
Test [4] relates to NCI-H460 lung.
Test [5] deals with OVCAR-5 ovarian.
The subject of test [6] is RXF 393 renal.
Test [7] has as its system SF-268 CNS.
In test [8] the test system is SF-295 CNS.
In test [9] the test system is SK-MEL-5 melanoma.
Test [10] concerns TK-10 renal.

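1) Cells in 96-well plates. 2) Compound, 48 h, 5 concentrations. 3) Linear interpolation between surrounding doses. 4) Unreached endpoint = highest concentration. TGI: concentration producing complete growth inhibition.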

Experimental findings from PubChem BioAssay (NCI) are described below.

Take `Oc1ccc(CCc2cc(O)cc(O)c2)cc1`: the TGI in [1], in test [2], in [3], in test [4], in [5] and in test [6] was above 100 µM each time. The total growth inhibition concentration (TGI) in test [7], in test [8], in [9] and in test [10] was above 100 µM each time.

Turning to `[N-]=[N+]=Nc1ccc(CNc2cc(=O)[nH]c(=O)[nH]2)cc1`, the TGI in test [1], in [2], in [3], in [4], in [5] and in [6] was above 100 µM each time. Further, the TGI in test [7], in test [8], in test [9] and in test [10] was above 100 µM each time.

On to `S=C(S)NCC1CCC(CNC(=S)S)CC1` (stereo not given), for which the TGI in test [1] is above 100 µM; in test [2], above 100 µM; in [3], above 100 µM; in test [4], above 100 µM; in test [5], above 100 µM; in test [6] it was 40.6 µM. Further, the concentration for total growth inhibition (TGI) is above 100 µM in test [7], above 100 µM in test [8], above 100 µM in test [9] and 51.7 µM in [10].

As for `COc1ccc(OC)c2c1C1CCC(=O)N1CN2C(C)=O` (stereo not given), the TGI in [1], in test [2], in test [3], in [4], in test [5] and in test [6] was above 100 µM each time. Further, the total growth inhibition concentration (TGI) in test [7], in test [8], in [9] and in test [10] was above 100 µM in each case.

`Cc1c(-c2ccccc2)c(C#N)c2nnc(C(N)=O)c(N)n12`: the total growth inhibition concentration (TGI) in [1], in test [2], in [3], in test [4], in test [5] and in test [6] was above 100 µM each time. Moreover, the TGI in [7], in [8], in test [9] and in test [10] was above 100 µM in each case.

As to `CC(C)OP(=O)(OC(C)C)C(C(C)C)N(C)/C(F)=N/C(F)(F)F` (stereo not given), the TGI in test [1], in test [2], in test [3], in test [4], in test [5] and in test [6] was above 100 µM throughout. In addition, the TGI in test [7], in test [8], in test [9] and in test [10] was above 100 µM throughout.

For `c1ccc2c(c1)nc1n2CCSC1`, the TGI in [1], in test [2], in [3], in [4], in [5] and in test [6] was above 100 µM throughout. The TGI in test [7], in test [8], in test [9] and in [10] was above 100 µM in each case.

For `Cc1ccc(-c2n[nH]c(=O)[nH]2)cc1[N+](=O)[O-]`, the TGI in test [1], in test [2], in test [3], in test [4], in [5] and in test [6] was above 100 µM each time. For the same compound, the total growth inhibition concentration (TGI) in test [7], in test [8], in test [9] and in [10] was above 100 µM throughout.

On to `COc1cc(C2S/C(=C/c3ccccc3)C(=O)N2c2ccc(Cl)c(Cl)c2)cc(OC)c1OC` (stereo not given), for which the TGI in test [1] was above 82.4 µM; in test [2] it was above 100 µM; in [3], above 100 µM; in test [4], above 100 µM; in [5] it was above 100 µM; in [6], above 100 µM. The TGI in test [7], in test [8], in test [9] and in [10] was above 100 µM in each case.

Consider `COC(=O)[C@@H]1C[C@@]2(C3C=CN(C(=O)C(F)(F)F)C=C3)c3ccccc3N(C(=O)C(F)(F)F)[C@H]2N1C(=O)OC`, for which the TGI in test [1] is above 100 µM; in test [2], above 100 µM; in test [3] it was above 100 µM; in test [4] it was above 100 µM; in test [5], above 100 µM; in [6], 60.4 µM. Further, the concentration for total growth inhibition (TGI) in test [7] is above 100 µM; in [8] it was above 100 µM; in [9], above 100 µM; in test [10], 60.5 µM.

As for `CCc1c(C)c(C#N)c(=S)n(C2OC(CO)C(O)C(O)C2O)c1C` (stereo not given), the TGI in test [1], in test [2], in [3], in [4], in [5] and in test [6] was above 100 µM in each case. Further, the TGI in test [7], in test [8], in [9] and in test [10] was above 100 µM throughout.

`COc1cc2c(/C=C3/C(=O)N(c4ccccc4)c4ccccc43)c(Cl)[nH]c2cc1C`: the TGI in test [1] is above 71.4 µM; in test [2] it was above 31.4 µM; in [3], 7.81 µM; in [4] it was 9.04 µM; in test [5], above 40.5 µM; in test [6], above 81.4 µM. Also, the total growth inhibition concentration (TGI) in test [7] is above 53.8 µM; in test [8], above 22.3 µM; in test [9] it was 8.35 µM; in test [10], 12.8 µM.

As to `C[N+](C)(C)c1ncnc2c1ncn2C1CCCCO1` (stereo not given), the TGI in [1], in test [2], in test [3], in test [4], in [5] and in test [6] was above 100 µM in each case. Besides, the TGI in test [7], in [8], in [9] and in [10] was above 100 µM throughout.

On to `O=C1c2cccc3cccc(c23)C(=O)N1CCCNOCCONCCCN1C(=O)c2cccc3cccc(c23)C1=O`, for which the TGI in [1], in [2], in [3], in test [4], in [5] and in test [6] was above 100 µM each time. For the same compound, the TGI in test [7], in test [8], in test [9] and in test [10] was above 100 µM each time.

On to `CC(=Nc1ccncc1)C(C)=Nc1ccncc1`, for which the TGI in [1] is above 100 µM; in test [2], 48.7 µM; in [3], 32.6 µM; in [4], above 100 µM; in test [5] it was 31.9 µM; in test [6], 59.8 µM. The TGI in test [7] is above 100 µM; in test [8], above 100 µM; in [9], 47.1 µM; in test [10] it was above 100 µM.

Turning to `Cc1c2c(OCCCCN3CCN(c4ncccn4)CC3)nn(C)c(=O)c2c(C)n1-c1ccccc1`, the TGI in test [1] is 30.6 µM; in test [2], 36.6 µM; in test [3], 37 µM; in test [4], 35.6 µM; in [5], 37.6 µM; in test [6] it was 41.8 µM. For the same compound, the TGI in [7] stood at 34.3 µM; in test [8], 32.4 µM; in test [9], 26.8 µM; in test [10], 33.5 µM.

Regarding `NNc1nncn1N`, the TGI in [1] is above 100 µM; in test [2] it was above 100 µM; in [3], above 79.5 µM; in test [4], above 100 µM; in [5] it was above 100 µM; in test [6] it was above 100 µM. For the same compound, the TGI in test [7], in [8], in test [9] and in test [10] was above 100 µM in each case.

Consider `C=C(C)C1CC=C(C)C2(C1)OCC(C)(C)C(C)O2` (stereo not given), for which the TGI in test [1] is 28.9 µM; in test [2], 62.3 µM; in test [3] it was 48.4 µM; in test [4], above 100 µM; in test [5] it was 38.5 µM; in [6], 27.3 µM. For the same compound, the TGI in test [7] is 70.9 µM; in test [8], 48.2 µM; in test [9], 29.2 µM; in [10], above 100 µM.

As for `c1ccc2c(Cc3nnc4sc(SSc5nn6c(Cc7c[nH]c8ccccc78)nnc6s5)nn34)c[nH]c2c1`, the TGI in test [1] is 44.2 µM; in [2], above 100 µM; in [3] it was 34.7 µM; in test [4], 89.3 µM; in test [5], 53.1 µM; in test [6] it was 50.9 µM. Further, the TGI in test [7] is 67.2 µM; in test [8] it was 44.1 µM; in test [9], 24.2 µM; in test [10], above 100 µM.

For the compound `O=C1/C(=C2\Sc3c(ccc(Cl)c3Cl)C2=O)Sc2c1ccc(Cl)c2Cl`, the TGI in [1], in test [2], in test [3], in [4], in [5] and in [6] was above 100 µM in each case. In addition, the TGI in test [7], in [8], in [9] and in test [10] was above 100 µM in each case.

As to `C/C(O)=C/c1nc2ccc([N+](=O)[O-])cc2nc1/C=C(/C)O`, the TGI in test [1] is 83.6 µM; in [2] it was above 100 µM; in test [3], above 100 µM; in [4], 51.5 µM; in [5] it was above 100 µM; in test [6], above 100 µM. In addition, the TGI in [7], in [8], in test [9] and in test [10] was above 100 µM throughout.

For the compound `CC(C)N(C)C(=O)C12C3C4C1C1C2C3C41C#N` (stereo not given), the TGI in test [1], in [2], in [3], in test [4], in test [5] and in test [6] was above 100 µM throughout. Further, the TGI in [7], in test [8], in test [9] and in test [10] was above 100 µM in each case.

Turning to `Cc1ccc(C(=O)/C(C#N)=C/Nc2c(C)n(C)n(-c3ccccc3)c2=O)cc1`, the total growth inhibition concentration (TGI) in test [1], in [2], in [3], in [4], in test [5] and in [6] was above 100 µM each time. In addition, the concentration for total growth inhibition (TGI) in test [7], in [8], in test [9] and in [10] was above 100 µM in each case.

In the case of `CC(C)(C)OC[C@H](O)CC#N`, the total growth inhibition concentration (TGI) in [1], in test [2], in [3], in test [4], in test [5] and in test [6] was above 100 µM in each case. Further, the total growth inhibition concentration (TGI) in [7], in test [8], in [9] and in test [10] was above 100 µM each time.

`O=c1[nH]c2cc3[nH]c4ncccc4c(=O)c3cc2[nH]1`: the TGI in [1], in [2], in test [3], in test [4], in test [5] and in test [6] was above 10 µM throughout. The TGI in test [7], in test [8], in test [9] and in test [10] was above 10 µM in each case.

With `Cc1cc(=O)oc2cc(O)ccc12`, the TGI in test [1], in test [2], in test [3], in test [4], in test [5] and in [6] was above 100 µM throughout. Further, the TGI in test [7], in test [8], in test [9] and in test [10] was above 100 µM each time.
